Biological target: T1, EPAC1-CNBD (Homo sapiens, UniProt O95398)
T1 sequence (O95398 169-318 isoform O95398-3): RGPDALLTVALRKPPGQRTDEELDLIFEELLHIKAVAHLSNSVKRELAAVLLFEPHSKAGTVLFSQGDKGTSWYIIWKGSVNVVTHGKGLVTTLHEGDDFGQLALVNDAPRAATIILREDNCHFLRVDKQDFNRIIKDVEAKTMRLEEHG
Experiment: 8-NBD-cAMP competition binding assay, EPAC1-CNBD
Settings: for RFI (%) (relative fluorescence intensity), Table 4: compound 10 µM, EPAC1-CNBD 0.8 µM, 8-NBD-cAMP 62.5 nM, mean ± SEM, lower RFI = stronger binding

SMILES | RFI (%) (relative fluorescence intensity), Table 4 | fold binding potency increase versus compound 3 (from RFI at 10 µM)
COc1ccc(S(=O)(=O)NC(=O)COc2ccc3ccccc3c2)cc1OC [Compound 25i, N-((3,4-Dimethoxyphenyl)sulfonyl)-2-(naphthalen-2-yloxy)acetamide] | 50 ± 3 | 
Cc1cc(Br)cc(S(=O)(=O)NC(=O)COc2ccc3ccccc3c2)c1 [Compound 25j, N-((3-Bromo-5-methylphenyl)sulfonyl)-2-(naphthalen-2-yloxy)acetamide] | 58 ± 2 | 
COc1ccc2ccc(OCC(=O)NS(=O)(=O)c3cc(C)cc(Br)c3)cc2c1 [Compound 25k, N-((3-Bromo-5-methylphenyl)sulfonyl)-2-((7-methoxynaphthalen-2-yl)oxy)acetamide] | 29 ± 8 | 
COc1ccc2ccc(OCC(=O)NS(=O)(=O)c3cc(Cl)cc(Cl)c3)cc2c1 [Compound 25l, N-((3,5-Dichlorophenyl)sulfonyl)-2-((7-methoxynaphthalen-2-yl)oxy)acetamide] | 54 ± 6 | 
COc1ccc2ccc(OCC(=O)NS(=O)(=O)c3ccc([N+](=O)[O-])cc3OC)cc2c1 [Compound 25m, N-((2-Methoxy-4-nitrophenyl)sulfonyl)-2-((7-methoxynaphthalen-2-yl)oxy)acetamide] | 24 ± 2 | 
COc1ccc(OC)c(S(=O)(=O)NC(=O)COc2ccc3ccc(OC)cc3c2)c1 [Compound 25o, N-((2,5-Dimethoxyphenyl)sulfonyl)-2-((7-methoxynaphthalen-2-yl)oxy)acetamide] | 49 ± 4 | 
COc1ccc2ccc(OCC(=O)NS(=O)(=O)c3ccc(OC)c(OC)c3)cc2c1 [Compound 25p, N-((3,4-Dimethoxyphenyl)sulfonyl)-2-((7-methoxynaphthalen-2-yl)oxy)acetamide] | 23 ± 4 | 
Cc1cc(-c2cncc(F)c2)cc(S(=O)(=O)NC(=O)COc2ccc3ccccc3c2)c1 [Compound 25r, N-((3-(5-Fluoropyridin-3-yl)-5-methylphenyl)sulfonyl)-2-(naphthalen-2-yloxy)acetamide] | 36 ± 3 | 
Cc1cc(-c2ccco2)cc(S(=O)(=O)NC(=O)COc2ccc3ccccc3c2)c1 [Compound 25s, N-((3-(Furan-2-yl)-5-methylphenyl)sulfonyl)-2-(naphthalen-2-yloxy)acetamide] | 40 ± 1 | 
Cc1cc(-c2ccnn2C)cc(S(=O)(=O)NC(=O)COc2ccc3ccccc3c2)c1 [Compound 25t, N-((3-Methyl-5-(1-methyl-1H-pyrazol-5-yl)phenyl)sulfonyl)-2-(naphthalen-2-yloxy)acetamide] | 34 ± 5 | 
Cc1cc(Nc2ccc(C(F)(F)F)cn2)cc(S(=O)(=O)NC(=O)COc2ccc3ccccc3c2)c1 [Compound 25v, N-((3-Methyl-5-((5-(trifluoromethyl)pyridin-2-yl)amino)phenyl)sulfonyl)-2-(naphthalen-2-yloxy)acetamide] | 20 ± 3 | about 3 fold
Cc1ccc(S(=O)(=O)NC(=O)COc2ccc3ccccc3c2)cc1 [Compound 25w, 2-(Naphthalen-2-yloxy)-N-tosylacetamide] | 44 ± 2 | 
O=C(COc1ccc2ccccc2c1)NS(=O)(=O)c1cccc([N+](=O)[O-])c1 [Compound 25x, 2-(Naphthalen-2-yloxy)-N-((3-nitrophenyl)sulfonyl)acetamide] | 67 ± 3 | 
O=C(COc1ccc2ccccc2c1)NS(=O)(=O)c1ccccc1 [Compound 25y, 2-(Naphthalen-2-yloxy)-N-(phenylsulfonyl)acetamide] | 49 ± 2 | 

Reference: US20230150929A1, “SELECTIVE NON-CYCLIC NUCLEOTIDE ACTIVATORS FOR THE CAMP SENSOR EPAC1” (The Board of Regents of The University of Texas System, priority 2020, published 2023)
